This note sets out measurements from patent publication US20060051321A1, “Biological compositions and methods for treatment of testicular cancer” (Ultra Biotech Limited, priority 2003, published 2006).

What all share (format): in vivo
Assay [1] relates to testicular cancer cell line CRL-1973. In words: Survival in Wistar rat model of human testicular cancer (Example 9). Particulars: for Number of live animals remaining in the groups after 30 days of treatment: 30 rats per group. As for the experimental part:
The survival time of mice after tumor injection and treatment was studied.
(§1) The biological composition comprising 10^8 cells per ml of activated and conditioned yeast cells of the strain Saccharomyces cerevisiae Hansen strain AS2.182 was prepared by the methods described in Section 5.1 and subsections therein.
The animals were prepared in a similar manner as described in Section 8.1.
After injection with CRL-1973 cells, the rats were divided into 4 experimental groups of ten rats per group and one control group. The four experimental groups were triplicated (ie., using a total of 120 rats in the experimental groups). In group 2AY, the rats received 1.2 ml of the biological composition once per day. In group 2NY, the rats received 1.2 ml of the untreated yeast cells once per day. […] In group 2CK1, the rats received 1.2 ml of physiological saline once per day.
The rats received the biological compositions, untreated yeast cells, VLB or saline on the same day as the tumor cells were transplanted. The rats in group 2CK2 also started receiving saline on the same day as the other four groups. The biological compositions, untreated yeast cells and saline were administered orally by a feeding tube and the VLB by intravenous injection for 30 consecutive days. The mice were observed over 6 months from the day of tumor inoculation and survival was recorded. The weight of the mice and the weight of the tumor were determined by standard techniques.

Assay [2] shares this test system. In words: Tumor growth in Wistar rat model of human testicular cancer (Example 8). The note with it: rats injected s.c. with CRL-1973 cells; 30 consecutive days of treatment; sacrificed on 31st day from tumor inoculation.
Text: The following example illustrates the benefit of a biological composition of the invention in a Wistar rat model of human testicular cancer. The growth of the tumor in the rats was studied.
Numerous animal studies have reported the use of Wistar rat models in the study of human testicular cancer. There is very high success rate for transplanting testicular tumor CRL-1973 cells in rats. The testicular tumor cell line CRL-1973 can be ordered from the American Type Culture Collection.
as §1
The animals used for the experiments were male Wistar rats (obtainable from the Chinese Academy of Military Medical Sciences, Beijing, China). About 2×10^7 viable tumor cells of the testicular cancer cell line CRL-1973 (obtainable from the Cancer Institute, Chinese Academy of Medical Sciences, Beijing, China) in about 0.2 ml culture suspension was injected subcutaneously into the animals. […]
The rats received the biological compositions, untreated yeast cells, VLB or saline on the same day as the tumor cells were transplanted. […] The weight of the rats and the weight of the tumor were determined by standard techniques.

Assay [3] relates to testicular cancer cell line HTB-104. In words: Tumor growth in kun ming mouse model of human testicular cancer (Example 6). The note with it: mice injected s.c. with HTB-104 cells; 30 consecutive days of treatment; sacrificed on 31st day from tumor inoculation.
Text: The following example illustrates the benefit of a biological composition of the invention in a kun ming mouse model of human testicular cancer. The growth of tumors in the mice was studied.
Numerous animal studies have reported the use of kun ming mouse models in the study of human testicular cancer. There is almost a 100% success rate for transplanting testicular tumor HTB-104 cells in mice. The testicular tumor cell line HTB-104 can be ordered from the American Type Culture Collection.
as §1
The animals used for the experiments were kun ming mouse (obtainable from the Chinese Academy of Military Medical Sciences, Beijing, China). Only males 20 to 22 gram in body weight, 6 to […] old were used. […]
The mice received the biological compositions, untreated yeast cells, BLM or saline on the same day as the tumor cells were transplanted. […] On the 31st day from tumor inoculation, the mice were sacrificed and the weight of the mice and the weight of the tumor were determined by standard techniques.

Assay [4] has the same test system. In words: Survival in kun ming mouse model of human testicular cancer (Example 7). The note with it: for Number of live animals remaining in the groups after 30 days of treatment: 30 mice per group. Here is the method: The following example illustrates the benefit of a biological composition of the invention in a kun ming mouse model of human testicular cancer. The survival time of rats after tumor injection and treatment was studied.
The biological composition comprising 10^8 cells per ml of activated and conditioned yeast cells of the strain Saccharomyces cerevisiae Hansen strain AS2. 182 was prepared by the methods described in Section 5.1 and subsections therein.
The animals were prepared in a similar manner as described in Section 6.1.
After injection with HTB-104 cells, the mice were divided into 4 experimental groups of ten mice per group and one control group. The four experimental groups were triplicated (i.e., using a total of 120 mice in the experimental groups). In group 2AY, the mice received 0.5 ml of the biological composition once per day. In group 2NY, the mice received 0.5 ml of the untreated yeast cells once per day. In group 2BLM, the mice were injected subcutaneously with 0.8 mg of bleomycin (BLM) per kg body weight per day. In group 2CK1, the mice received 0.5 ml of physiological saline once per day.
The mice received the biological compositions, untreated yeast cells, BLM or saline on the same day as the tumor cells were transplanted. The mice in group 2CK2 also started receiving saline on the same day as the other four groups. The biological compositions, untreated yeast cells or saline were administered orally by a feeding tube and the BLM by subcutaneous injection for 30 consecutive days. The mice were observed over 6 months from the day of tumor inoculation and survival was recorded. The weight of the mice and the weight of the tumor were determined by standard techniques.

The mark [5] stands for this setting: 0 month after cessation of treatment.
Setting [6] is: 1 month after cessation of treatment.
Where [7] appears, read: 2 months after cessation of treatment.
Setting [8] is: 3 months after cessation of treatment.
Setting [9] is: 4 months after cessation of treatment.
[10] abbreviates: 5 months after cessation of treatment.
The mark [11] stands for this setting: 6 months after cessation of treatment.

Regarding `CC[C@]1(O)C[C@@H]2CN(CCc3c([nH]c4ccccc34)[C@@](C(=O)OC)(c3cc4c(cc3OC)N(C)[C@H]3[C@@](O)(C(=O)OC)[C@H](OC(C)=O)[C@]5(CC)C=CCN6CC[C@]43[C@@H]65)C2)C1` [VLB, vinblastine], the “Number of live animals remaining in the groups after 30 days of treatment” value (shortened to “Number of live animals remaining”) in assay [1] (setting [5]) worked out at 30; in assay [1] (setting [6]) it was 30; in assay [1] (setting [7]) it was 22; in assay [1] (setting [8]) it was 9; in assay [1] (setting [9]), 1; in assay [1] (setting [10]) it was 0. Further, the “Number of live animals remaining” value in assay [1] (setting [11]) is recorded as 0. The “death of all animals, time from injection of tumor cells” value in assay [1] (rats bearing CRL-1973 cells, 30 days of treatment) is listed as “all died after five months”. Further, the “mean weight of tumor nodules and standard deviation” value in assay [1] (rats that survived, observed over 6 months from tumor inoculation) was “all animals dead”; in assay [2], 2.67 ± 2.65 g.
bleomycin [BLM]: the “mean weight of tumor nodules and standard deviation” value is recorded as 1.13 ± 0.65 mg in assay [3] and “all animals dead” in assay [4] (mice that survived, observed over 6 months from tumor inoculation). The “Number of live animals remaining” value in assay [4] (setting [5]) amounted to 30; in assay [4] (setting [6]), 27; in assay [4] (setting [7]) it was 16; in assay [4] (setting [8]), 0; in assay [4] (setting [9]), 0; in assay [4] (setting [10]), 0. Besides, the “Number of live animals remaining” value in assay [4] (setting [11]) turned out to be 0. In addition, the “death of all animals, time from injection of tumor cells” value in assay [4] (mice bearing HTB-104 cells, 30 days of treatment) was “all died after three months”.
